What is called IC50 is the concentration at which inhibition is half-maximal.

≈ marks a conversion by molar mass, not a printed value. Entries after “also recorded” stand apart in the source; their conditions may differ. Where two headings read alike, the source gives them in different places.

Test [1] concerns human breast cancer cell line MCF7. Description: cells. It is filed as cell-based. Here is the method:
(§1) Cell lines: Human pancreatic cancer cell line Panc-1, human colorectal cancer cell line HT29, human lung cancer cell line NCI-H460 and human breast cancer cell line MCF7; the medium: s DMEM (Gibco BRL), containing 10% fetal calf serum (Gibco BRL) and 2 mM L-glutamine (Gibco BRL).
(§2) Test samples: example compounds 7, 15, 82, 89, 116 and 135. The samples were dissolved in dimethyl sulfoxide (DMSO, Sigma, United States) and medium was added to the final concentration of 0.5%. Cyclophosphamide ware as positive control (Aldrich, United States, purity>96%).
(§3) General Method: cells were digested with trypsin and dispersed into single cells in the medium containing penicillin (25 U/ml) and streptomycin (25 μg/mL). The cells were seeded in 96-well culture plates (Corning Incorporated), at 37° C., with 5% CO2 present for 24 hours. The culture medium was removed, […] test compounds were added, cultured for 48 hours. Culture medium was removed and […] (MTT, USA Sigma products) was added. The result was assayed by SK601-based microplate reader (Japan Seikagaku company's products), 570 nm/630 nm optical density (OD). Cell viability determined by the formula: (Experimental group OD/control OD)×100%; CTX and the positive control subjects treated in the same material simultaneously.

In test [2] the test system is human colorectal cancer cell line HT29. Description: cells. It is filed as cell-based. To be noted: for IC50: Homo sapiens; for anti-proliferative effect on HT29 (in words): colorectal cancer. Here is the method: as §1, §2, §3
Test [3] has as its system human lung cancer cell line NCI-H460. Description: cells. It is filed as cell-based. The following applies: for IC50: Homo sapiens; for inhibitory effect on NCI-H460 cells (in words): lung cancer. As for the experimental part: as §1, §2, §3
In test [4] the test system is Human pancreatic cancer cell line Panc-1. The test is described as follows: cells. To be noted: for IC50: Homo sapiens, read-out: IC50 and 95% confidence limit, anti-proliferative effect on Panc-1; for anti-proliferative effect on Panc-1 (in words): pancreatic cancer. It is filed as cell-based. Here is the method:
as §1, §2, §3

In test [5] the test system is mice sarcoma S180. The test is described as follows: Growth inhibition of S180 sarcoma in mice. The following applies: for in-vivo anti-tumor efficacy, statistical significance (in words): S180 sarcoma in mice, doses and routes of Table 3. It is filed as in vivo, Kunming healthy mice.
The mark [6] stands for this setting: MCF7, MTT, 48 hours, unit inferred, read-out: IC50 with 95% confidence limits, MCF7 cells.
Where [7] appears, read: MCF7, MTT, cultured for 48 hours, value (95% confidence limit), Table 2, read-out: IC50 Breast cancer MCF7.
[8] abbreviates: HT-29, MTT, 48 hours, read-out: IC50 and 95% confidence limit, anti-proliferative effect on HT29.
Setting [9] is: HT-29, MTT, cultured for 48 hours, value (95% confidence limit), Table 2, read-out: IC50 Colorectal cancer HT-29.
[10] abbreviates: NCI-H460, MTT, 48 hours, unit inferred, read-out: IC50 and 95% confidence limits, NCI-H460 cells.
Setting [11] is: NCI-H460, MTT, cultured for 48 hours, value (95% confidence limit), Table 2, read-out: IC50 Lung cancer NCI-H460.
The mark [12] stands for this setting: Mus musculus, S-180, mice, iv, read-out: Inhibition rate (%) S180 sarcoma.

On to `CCOC(=O)c1nn(CO)c2c(=O)n(C3OC3CO)nnc12` (centres unmarked) [Example 7, ethyl 7-(hydroxymethyl)-2-(3-(hydroxymethyl)oxiran-2-yl)-1-oxo-2,7-dihydro-1H-pyrazolo[4,3-d][1,2,3]triazine-5-carboxylate], for which the IC50 in test [1] (setting [6]) turned out to be 6.18 µM; in test [1] (setting [7]), 6.18 µM; in test [2] (setting [8]), 18.8 µg/mL; in test [2] (setting [9]) it was 18.8 µM; in test [3] (setting [10]), 5.18 µM; in test [3] (setting [11]), 5.18 µM. For the same molecule, in test [4] (PANC-1, MTT, 48 hours), the IC50 was 51.3 µg/mL (≈ 165 µM). Further, the “anti-proliferative effect on HT29 (in words)” value in test [2] is “relatively weak”. Also, the “inhibitory effect on NCI-H460 cells (in words)” value (“inhibitory effect” below) in test [3] was “more sensitive to NCI-H460 cells”.
In the case of `Nc1nn(O)c2c(=O)n(C3OC(CO)C(O)C3O)nnc12` (centres unmarked) [Example 15, 7-amino-3-(3,4-dihydroxy-5-(hydroxymethyl)tetrahydrofuran-2-yl)-5-hydroxy-3H-pyrazolo[4,3-d][1,2,3]triazin-4(5H)-one], the 50% inhibitory concentration (IC50) in test [1] (setting [6]) turned out to be 2.73 µM; in test [1] (setting [7]), 2.73 µM; in test [2] (setting [8]) it was 3.92 µg/mL; in test [2] (setting [9]), 3.92 µM; in test [3] (setting [10]) it was 22 µM; in test [3] (setting [11]), 22 µM. The IC50 in test [4] (PANC-1, MTT, 48 hours) is 2.68 µg/mL (≈ 8.93 µM). Further, the “anti-proliferative effect on HT29 (in words)” value in test [2] was “close values to CTX; also recorded: higher inhibition activity”. In test [3], the “inhibitory effect” value was “more sensitive to NCI-H460 cells”. Further, the “anti-proliferative effect on Panc-1 (in words)” value in test [4] is listed as “higher inhibition activity”. The inhibition in vivo at 50 mg/kg in test [5] (setting [12]) is < 40%. The “in-vivo anti-tumor efficacy, statistical significance (in words)” value in test [5] is “statistically significant”.
For `CCCc1nn(C(C(=O)O)P(=O)(OCC)OCC)c2c(=O)n(C3CCC(CO)O3)nnc12` (centres unmarked) [Example 82, 2-(diethoxyphosphoryl)-2-(3-(5-(hydroxymethyl)tetrahydrofuran-2-yl)-4-oxo-7-propyl-3H-pyrazolo[4,3-d][1,2,3]triazin-5(4H)-yl)acetic acid], the IC50 turned out to be 34.3 µM in test [1] (setting [6]); 34.3 µM in test [1] (setting [7]); 10.2 µg/mL in test [2] (setting [8]); 13.1 µM in test [2] (setting [9]); 60.5 µM in test [3] (setting [10]); 60.5 µM in test [3] (setting [11]). In test [4] (PANC-1, MTT, 48 hours), the IC50 was 53 µg/mL (≈ 112 µM). In test [2], the “anti-proliferative effect on HT29 (in words)” value was “relatively weak”. The inhibition in vivo at 15 mg/kg in test [5] (Mus musculus, S-180, mice, iv, 15 mg/kg, read-out: Inhibition rate (%) S180 sarcoma) is < 20%.
In the case of `Nc1nn(O)c2c(=O)n(C3CSC(CO)O3)nnc12` (centres unmarked) [Example 89, 7-amino-5-hydroxy-3-(2-(hydroxymethyl)-1,3-oxathiolan-5-yl)-3H-pyrazolo[4,3-d][1,2,3]triazin-4(5H)-one], the IC50 in test [1] (setting [6]) was found to be 67.5 µM; in test [1] (setting [7]), 67.5 µM; in test [2] (setting [8]), 13.1 µg/mL; in test [2] (setting [9]), 10.2 µM; in test [3] (setting [10]), 8.52 µM; in test [3] (setting [11]), 8.52 µM. Further, the IC50 in test [4] (PANC-1, MTT, 48 hours) is 10 µg/mL (≈ 35 µM). Moreover, the “anti-proliferative effect on HT29 (in words)” value in test [2] is given as “relatively weak”. Also, the inhibition in vivo at 100 mg/kg in test [5] (Mus musculus, S-180, mice, ip, 100 mg/kg, read-out: Inhibition rate (%) S180 sarcoma) is < 40%. Besides, the “in-vivo anti-tumor efficacy, statistical significance (in words)” value in test [5] is given as “statistically significant”.
As to `CCOC(=O)c1nn(O)c2c(=O)n(C3OC(COC(C(=O)O)P(NC(C)C)OCC#N)C(O)C3O)nnc12` (centres unmarked) [Example 116, 2-((cyanomethoxy)(isopropylamino)phosphino)-2-((5-(7-(ethoxycarbonyl)-5-hydroxy-4-oxo-4,5-dihydro-3H-pyrazolo[4,3-d][1,2,3]triazin-3-yl)-3,4-dihydroxytetrahydrofuran-2-yl)methoxy)acetic acid], the IC50 stood at 12.9 µM in test [1] (MCF7, 48 h, read-out: IC50 Breast cancer MCF7); 12.9 µM in test [1] (MCF7, 48 h, read-out: IC50 with 95% confidence limits, MCF7 cells); 2.68 µM in test [2] (HT-29, 48 h, read-out: IC50 Colorectal cancer HT-29); 2.68 µg/mL in test [2] (HT-29, 48 h, read-out: IC50 and 95% confidence limit, anti-proliferative effect on HT29); 4.62 µM in test [3] (NCI-H460, 48 h, read-out: IC50 Lung cancer NCI-H460); 4.62 µM in test [3] (NCI-H460, 48 h, read-out: IC50 and 95% confidence limits, NCI-H460 cells). Also, the IC50 in test [4] (PANC-1, 48 h) was determined as 2.19 µg/mL (≈ 3.91 µM). Besides, the “anti-proliferative effect on HT29 (in words)” value in test [2] is given as “the strongest; also recorded: higher inhibition activity”. The “inhibitory effect” value in test [3] is listed as “more sensitive to NCI-H460 cells”. Also, in test [4], the “anti-proliferative effect on Panc-1 (in words)” value was “a strong anti-proliferative effect, better than CTX; also recorded: higher inhibition activity”. For the same molecule, in test [5] (setting [12]), the inhibition in vivo at 50 mg/kg is < 40%. Further, the “in-vivo anti-tumor efficacy, statistical significance (in words)” value in test [5] was “statistically significant”.
Regarding `CCCc1nn(C)c2c(=O)n(C3OC(COP(=O)(O)OP(=O)(O)OP(=O)(O)O)C(O)C3O)nnc12` (centres unmarked) [Example 135, (3,4-dihydroxy-5-(5-methyl-4-oxo-7-propyl-4,5-dihydro-3H-pyrazolo[4,3-d][1,2,3]triazin-3-yl)tetrahydrofuran-2-yl)methyl tetrahydrogen triphosphate], the IC50 in test [1] (setting [6]) stood at 5.7 µM; in test [1] (setting [7]), 5.7 µM; in test [2] (setting [8]) it was 18 µg/mL; in test [2] (setting [9]), 18 µM; in test [3] (setting [10]), 14 µM; in test [3] (setting [11]), 14 µM. In addition, the IC50 in test [4] (PANC-1, MTT, 48 hours) was 53.5 µg/mL. Further, the “anti-proliferative effect on HT29 (in words)” value in test [2] is on record as “relatively weak”. For the same molecule, the inhibition in vivo at 25 mg/kg in test [5] (Mus musculus, S-180, mice, iv, 25 mg/kg, read-out: Inhibition rate (%) S180 sarcoma) is < 40%. Besides, in test [5], the “in-vivo anti-tumor efficacy, statistical significance (in words)” value was “statistically significant”.

The record behind these values is patent US20210292347A1, “DIHETEROCYCLIC TRIAZINONE NUCLEOSIDE ANALOGS AND THEIR USE FOR MEDICATION” (priority 2020, published 2021).
